Experiment in all cases: biochemical
For assay [1], the target named is T1, norepinephrine transporter (NET) (Rattus norvegicus, UniProt Q63380).
T1 construct: brains were processed to yield synaptosomes as previously described; from tissue; host or cells: rat whole brain minus caudate and cerebellum, synaptosomes
Format: biochemical.

In assay [2] the target is T2, serotonin transporter (SERT) (Rattus norvegicus, UniProt P31652).
T2 construct: brains were processed to yield synaptosomes as previously described; from tissue; host or cells: rat whole brain minus caudate and cerebellum, synaptosomes

In assay [3] the target is T3, dopamine transporter (DAT) (Rattus norvegicus, UniProt P23977).
T3 construct: brains were processed to yield synaptosomes as previously described; from tissue; host or cells: rat caudate synaptosomes

pIC50: −log10 of the molar value. Entries after “also recorded” stand apart in the source; their conditions may differ. Bridge positions count the residues as written; N and C are the ends. Peptide text beside a SMILES is read from it. Some results are limits rather than exact numbers.

Consider two molecules from article PMC9964023 (Marine Drugs, 2023).

T1 sequence (Q63380 1-617): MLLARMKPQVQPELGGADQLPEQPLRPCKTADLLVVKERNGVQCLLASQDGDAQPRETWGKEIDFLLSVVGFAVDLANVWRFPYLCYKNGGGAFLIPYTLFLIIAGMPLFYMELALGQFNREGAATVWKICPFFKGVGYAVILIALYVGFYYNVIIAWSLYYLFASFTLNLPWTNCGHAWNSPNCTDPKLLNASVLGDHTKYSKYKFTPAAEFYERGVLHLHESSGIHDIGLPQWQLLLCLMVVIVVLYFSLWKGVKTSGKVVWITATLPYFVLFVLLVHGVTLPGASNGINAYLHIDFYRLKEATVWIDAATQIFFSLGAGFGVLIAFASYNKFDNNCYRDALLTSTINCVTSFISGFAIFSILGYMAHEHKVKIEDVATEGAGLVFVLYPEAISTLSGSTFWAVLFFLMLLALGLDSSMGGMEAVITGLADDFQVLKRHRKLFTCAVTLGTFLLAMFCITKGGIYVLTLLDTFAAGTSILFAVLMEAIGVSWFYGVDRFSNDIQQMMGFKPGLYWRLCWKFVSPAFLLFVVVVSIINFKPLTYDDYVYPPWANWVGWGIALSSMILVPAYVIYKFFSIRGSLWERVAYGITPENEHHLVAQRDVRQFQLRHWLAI
T3 sequence (P23977 whole entry): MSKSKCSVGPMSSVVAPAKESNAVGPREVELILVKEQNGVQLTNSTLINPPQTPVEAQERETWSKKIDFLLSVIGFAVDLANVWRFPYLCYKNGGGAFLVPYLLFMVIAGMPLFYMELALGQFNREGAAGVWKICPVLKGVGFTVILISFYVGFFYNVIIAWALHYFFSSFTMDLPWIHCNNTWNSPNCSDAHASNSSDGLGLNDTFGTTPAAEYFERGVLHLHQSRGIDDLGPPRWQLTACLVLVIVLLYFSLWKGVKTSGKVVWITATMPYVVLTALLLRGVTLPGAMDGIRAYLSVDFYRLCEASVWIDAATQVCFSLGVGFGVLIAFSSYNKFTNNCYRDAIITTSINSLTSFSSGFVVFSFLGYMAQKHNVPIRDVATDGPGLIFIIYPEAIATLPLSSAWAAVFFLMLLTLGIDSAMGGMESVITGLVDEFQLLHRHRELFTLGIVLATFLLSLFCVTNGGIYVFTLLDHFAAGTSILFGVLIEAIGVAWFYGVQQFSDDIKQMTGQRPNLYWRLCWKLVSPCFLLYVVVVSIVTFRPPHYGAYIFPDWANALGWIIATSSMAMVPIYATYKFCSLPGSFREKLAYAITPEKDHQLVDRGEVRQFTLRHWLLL
T2 sequence (P31652 whole entry): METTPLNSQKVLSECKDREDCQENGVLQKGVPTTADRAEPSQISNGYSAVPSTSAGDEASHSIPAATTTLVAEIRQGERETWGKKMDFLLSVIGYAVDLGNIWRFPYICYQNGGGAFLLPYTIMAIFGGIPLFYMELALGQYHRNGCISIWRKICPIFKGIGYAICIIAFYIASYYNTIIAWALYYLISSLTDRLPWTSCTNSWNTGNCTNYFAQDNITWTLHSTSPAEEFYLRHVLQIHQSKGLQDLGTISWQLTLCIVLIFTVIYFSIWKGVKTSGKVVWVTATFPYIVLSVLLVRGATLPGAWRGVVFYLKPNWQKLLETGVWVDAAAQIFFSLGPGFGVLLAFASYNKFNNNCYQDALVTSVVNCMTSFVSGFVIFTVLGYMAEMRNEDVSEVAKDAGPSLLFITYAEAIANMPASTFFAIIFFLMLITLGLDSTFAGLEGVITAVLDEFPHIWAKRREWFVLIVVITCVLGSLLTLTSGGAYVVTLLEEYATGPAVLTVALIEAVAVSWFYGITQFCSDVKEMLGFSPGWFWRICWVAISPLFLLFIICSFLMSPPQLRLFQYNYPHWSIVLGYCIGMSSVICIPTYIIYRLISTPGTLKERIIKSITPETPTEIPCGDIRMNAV

Turning to `CSCC[C@@H]1NC(=O)[C@H](CCCNC(=N)N)NC(=O)[C@H](Cc2ccc(O)cc2)NC(=O)CNC(=O)[C@@H]2CSSC[C@@H](C(N)=O)NC(=O)[C@@H]3CCCN3C(=O)[C@H](C(C)C)NC(=O)[C@H](CSSC[C@H](NC(=O)[C@@H](NC(=O)[C@@H](N)CO)[C@@H](C)O)C(=O)N2)NC1=O` [PnID A] (H-STCCGYRMCVPC-NH2; disulfide 3-9, 4-12), the pIC50 in assay [1], in assay [2] and in assay [3] was less than 4.00 throughout. In addition, the “activity at NET relative to ribbon isomer (in words)” value in assay [1] was “more than ten times less activity; also recorded: much less active in inhibiting the rat NET”.

On to `CSCC[C@@H]1NC(=O)[C@H](CCCNC(=N)N)NC(=O)[C@H](Cc2ccc(O)cc2)NC(=O)CNC(=O)[C@@H]2CSSC[C@H](NC1=O)C(=O)N[C@@H](C(C)C)C(=O)N1CCC[C@H]1C(=O)N[C@H](C(N)=O)CSSC[C@H](NC(=O)[C@@H](NC(=O)[C@@H](N)CO)[C@@H](C)O)C(=O)N2` [PnID B] (H-STCCGYRMCVPC-NH2; disulfide 3-12, 4-9), for which the pIC50 in assay [1] was 5.00.
